Literature values as cited in PMC3983201, “6-Methoxyflavanones as Bitter Taste Receptor Blockers for hTAS2R39” (PLoS ONE, 2014).
Where two headings read alike, the source gives them in different places.

How the values were obtained:
[1] = tested on: hTAS2R31; parameters: method as in PMID 22059530; conditions: cited from earlier work
[2] = tested on: bitter taste; parameters: method as in PMID 16028996; conditions: in-vivo sensory masking, unknown mechanism; cited from earlier work
[3] = molecular target: T1, hTAS2R39 (Homo sapiens, UniProt P59534); parameters: method as in PMID 24117141; conditions: cited from earlier work
T1 construct: first 45 amino acids of rat somatostatin receptor type 3 (sst3 membrane-targeting tag) (N); expressed in transfected cells; host or cells: HEK293 T-Rex Flp-In cells stably expressing Gα16-gust44; receptor in pcDNA5/FRT, induced with doxycycline
T1 sequence (P59534 1-338): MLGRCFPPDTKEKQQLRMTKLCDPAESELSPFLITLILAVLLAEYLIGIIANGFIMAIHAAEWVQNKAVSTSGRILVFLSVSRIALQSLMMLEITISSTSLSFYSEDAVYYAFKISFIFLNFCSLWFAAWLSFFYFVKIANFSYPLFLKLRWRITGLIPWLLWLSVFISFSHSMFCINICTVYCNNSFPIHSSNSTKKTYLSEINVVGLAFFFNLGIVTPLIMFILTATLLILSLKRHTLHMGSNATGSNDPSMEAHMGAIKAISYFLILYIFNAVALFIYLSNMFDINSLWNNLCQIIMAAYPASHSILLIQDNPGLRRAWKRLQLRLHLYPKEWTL

Structure (SMILES) | antagonism of hTAS2R31 [1] | reduction of the bitter taste of different chemical classes of bitter molecules [2] | activation of hTAS2R39 in a previous study [3] | antagonism of hTAS2R31 ([1]; listed as sakuranetin)
COc1cc2c(c(O)c1OC)C(=O)C[C@@H](c1ccc(O)cc1)O2 [6-methoxysakuranetin, reference compound] | antagonists for hTAS2R31 |  |  | 
COc1cc([C@@H]2CC(=O)c3c(O)cc(O)cc3O2)ccc1O [Compound 7, Homoeriodictyol] |  | up to 40% | a activated hTAS2R39 in a previous study [16], but was selected for testing as antagonist due to ability to reduce bitter taste perception in sensory tests [9]. | 
COc1cc(O)c2c(c1)O[C@H](c1ccc(O)cc1)CC2=O [Compound 14, Sakuranetin] | c reported as antagonist of hTAS2R31 [10]. |  |  | antagonists for hTAS2R31
